Data taken from ChEMBL document CHEMBL4177550, “Bi- and Tetracyclic Spirotetronates from the Coal Mine Fire Isolate Streptomyces sp. LC-6-2” (J Nat Prod, 2017).
Active and inactive are the calls of the source.

Columns and labels:
Salmonella enterica = test: Antibacterial activity against Salmonella enterica ATCC 10708 up to 60 uM after 16 to 48 hrs; assay type: functional, organism-based
Saccharomyces cerevisiae = test: Antifungal activity against Saccharomyces cerevisiae ATCC 204508 up to 60 uM after 16 to 48 hrs; assay type: functional, organism-based
Micrococcus luteus = test: Antibacterial activity against Micrococcus luteus NRRL B-287 up to 60 uM after 16 to 48 hrs; assay type: functional, organism-based
Escherichia coli = test: Antibacterial activity against Escherichia coli NRRL B-3708 up to 60 uM after 16 to 48 hrs; assay type: functional, organism-based
Staphylococcus aureus = test: Antibacterial activity against Staphylococcus aureus ATCC 6538 up to 60 uM after 16 to 48 hrs; assay type: functional, organism-based
A549 = test: Cytotoxicity against human A549 cells assessed as decrease in cell viability up to 10 uM after 48 hrs by resazurin assay; assay type: functional, cell-based

Measured: Activity

C[C@@H]1C[C@]23OC(=O)/C4=C(\O)[C@@H](C)C[C@](C)(O)C(=O)[C@@H]5[C@@H](O)[C@H]2[C@H](O)[C@@]1(C)O[C@@]453
inactive: all assays above

C[C@@H]1C[C@@]23OC(=O)C4=C2O[C@]1(C)[C@@H](O)[C@@H]3[C@H]1O[C@H]1C(=O)[C@@](C)(O)C[C@H](C)C4=O
inactive: all assays above

CC(=O)C[C@H](C)C(=O)C1=C(O)[C@@]2(C[C@@H](C)C(C)=C[C@H]2/C=C/C(=O)O)OC1=O
inactive: all assays above

CO[C@H]1[C@H]2[C@H](O)[C@@]3(C)O[C@@]45/C(=C(/O)[C@@H](C)C[C@](C)(O)C(=O)[C@H]14)C(=O)O[C@@]25C[C@H]3C
inactive: all assays above

C[C@H]1C[C@](C)(O)C(=O)C[C@@H]2/C(=C\1O)C(=O)O[C@]13C[C@H](C)[C@](C)(OC1=O)[C@@H](O)[C@H]23
inactive: all assays above

C[C@H]1C[C@](C)(O)C(=O)[C@@H]2[C@@H](O)[C@H]3[C@H](O)[C@@]4(C)O[C@@]25/C(=C\1O)C(=O)O[C@@]35C[C@@]4(C)O
inactive: all assays above

C[C@@H]1C[C@H](C)C(=O)C2=C3O[C@@]4(C)[C@H](CO)C[C@]3(OC2=O)[C@@H](CCC1=O)[C@@H]4O
inactive: all assays above

C[C@@H]1C[C@H](C)/C(O)=C2/C(=O)O[C@]34C[C@@H](CO)[C@]5(C)O[C@]23[C@@H](C[C@H]4[C@@H]5O)C1=O
inactive: all assays above

C[C@@H]1C[C@H](C)/C(O)=C2/C(=O)O[C@]34C[C@@](C)(O)[C@]5(C)O[C@]23[C@@H](C[C@H]4[C@@H]5O)C1=O
inactive: all assays above

C[C@@H]1C[C@H](C)/C(O)=C2/C(=O)O[C@]34C[C@@](C)(O)[C@]5(C)O[C@]23[C@@H](C[C@@]42O[C@H]25)C1=O
inactive: all assays above

C[C@H]1C[C@](C)(O)C(=O)[C@@H]2[C@@H](O)[C@H]3[C@H](O)[C@@]4(C)O[C@@]25/C(=C\1O)C(=O)O[C@@]35C[C@H]4CO
inactive: all assays above

C[C@@H]1C[C@H](C)/C(O)=C2/C(=O)O[C@]34C[C@@H](C)[C@]5(C)O[C@]23[C@@H](C[C@H]4[C@@H]5O)C1=O
inactive: all assays above
